Measured values published in patent US20100120887A1, “SUSTAINED RELEASE FORMULATION OF MELATONIN” (THE TRUSTEES OF COLUMBIA UNIVERSITY IN THE CITY OF NEW YORK, priority 2007, published 2010).

Assay: Initial clinical evaluation, open clinical treatment of circadian sleep disorders and depression (case reports)
Type: in vivo, human
From the text: The present invention describes tablet formulation, in vitro and in vivo pharmacokinetics in a healthy, middle-aged subject group, and a range of potential uses. In the past three years, the present invention has been used in open clinical treatment of a variety of cases comprising circadian sleep disorders and depression. The strategy for treatment concentrates on serious cases, from which application to less severe cases—far more common population-wide—can be inferred. For example, in Delayed Sleep Phase Disorder (DSPD), the patient cannot fall asleep before wee hours of the night or early morning because of misalignment of the internal circadian timing system with external day and night. […] Melatonin is the chronobiotic par exemplar. Milder circadian misalignment is highly prevalent in the population, often starting in adolescence. A typical example is the worker who must maintain a 9-5 schedule but cannot fall asleep before 1 AM (“early insomnia”), leaving six hours for sleep availability, leading to daytime fatigue, disorientation, lapses of alertness, and weekend oversleeping that can trigger depressed mood. Such people comprise a primary market for the present invention, with the prospect of reduced reliance on sleeping pills.
Thus far, an ensemble of chronotherapeutic interventions has been used in clinical trials. […]

Question: For `COc1ccc2[nH]cc(CCNC(C)=O)c2c1` [melatonin, N-acetyl-5-methoxytryptamine], which “sleep onset and depressive symptoms under treatment” value (Case 2: seasonal depression, sleep not before 1 AM, melatonin at 6:30 PM plus light therapy 45 minutes) is on record?
Answer: Its value is “go to sleep at 11:30 PM with remission of depressive symptoms”.

Question: What about the “sleep onset under treatment” value (Case 3: history of seasonal depression, melatonin around 9 PM plus intermittent light therapy) of the same compound?
Answer: The value was “able to sleep at midnight without effort”.
